# Laboratory results as given in patent publication US9931355B2, “Combination of compounds derived from gallic acid for the treatment of cancer” (PONTIFICLA UNIVERSIDAD JAVERIANA, priority 2012, dated 2018).
# How the values were obtained:
# Assay type in all cases: cell-based
# A375 (human melanoma) = experiment: MTT cytotoxicity assay on A375 cells; details: A-375, 48 hours, read-out: 50% inhibitory concentration
# Description: The human cell lines used were K562 (human erythroleukemia) MCF7 (human breast cancer) and A375 (human melanoma). The murine cell lines used were Mel Rel (murine melanoma) and 4T1 (murine mammary cancer). These cells were maintained in RPMI 1640 medium supplemented with 10% fetal calf serum, 2 mM of L-glutamine, 100 U of penicillin, 100 μg/ml of streptomycin and 0.01 M of HEPES (Eurobio, Toulouse, FR) at 37° C. with 5% CO2 under a humid atmosphere. The cell line 4T1 was also maintained with 1 mM of sodium pyruvate (Eurobio, Toulouse, FR). For the assays on normal cells, human mononucleocytes from the venous peripheral blood of healthy donors (PBMC) were obtained, and were separated by centrifugation using a Ficoll-Hypaque density gradient (GE Healthcare Bio-Sciences AB, Bjorkgatan, Uppsala, Sweden).
# The cytotoxic effect of the combination of the invention on tumor cells and normal cells was evaluated by direct microscopic observation and via assays with MTT (Sigma, Saint Louis Mo., USA). […] The formazan crystals were dissolved with dimethyl sulfoxide (DMSO) and the optical density was measured at 540 nm in a Multiskan MCC/340 machine (Labsystems, Thermo Fisher Scientific, Waltham, USA).
# The cytotoxic effect of FA-CS was evaluated with MTT on various tumoral cell lines. The […] value on the various cell lines was calculated using the Minitab software. […]
# Fibroblasts = experiment: MTT cytotoxicity assay on fibroblasts; details: Fibroblast, read-out: 50% inhibitory concentration
# [1] = test system: 4T1 (murine mammary cancer); experiment: MTT cytotoxicity assay on 4T1 cells; details: Mus musculus, 48 hours, read-out: 50% inhibitory concentration
# Description: (§1) The human cell lines used were K562 (human erythroleukemia) MCF7 (human breast cancer) and A375 (human melanoma). The murine cell lines used were Mel Rel (murine melanoma) and 4T1 (murine mammary cancer). […] The cell line 4T1 was also maintained with 1 mM of sodium pyruvate (Eurobio, Toulouse, FR). For the assays on normal cells, human mononucleocytes from the venous peripheral blood of healthy donors (PBMC) were obtained, and were separated by centrifugation using a Ficoll-Hypaque density gradient (GE Healthcare Bio-Sciences AB, Bjorkgatan, Uppsala, Sweden). The cytotoxic effect of the combination of the invention on tumor cells and normal cells was evaluated by direct microscopic observation and via assays with MTT (Sigma, Saint Louis Mo., USA). […] The formazan crystals were dissolved with dimethyl sulfoxide (DMSO) and the optical density was measured at 540 nm in a Multiskan MCC/340 machine (Labsystems, Thermo Fisher Scientific, Waltham, USA). The cytotoxic effect of FA-CS was evaluated with MTT on various tumoral cell lines. The […] value on the various cell lines was calculated using the Minitab software. […]
# [2] = test system: K562 (human erythroleukemia); experiment: MTT cytotoxicity assay on K562 cells; details: 48 hours, read-out: 50% inhibitory concentration
# Description: as §1
# [3] = test system: MCF7 (human breast cancer); experiment: MTT cytotoxicity assay on MCF7 cells; details: 48 hours, read-out: 50% inhibitory concentration
# Description: as §1
SMILES,IC50 (A375 (human melanoma)) [µg/mL],IC50 (Fibroblasts) [µg/mL],IC50 [1] [µg/mL],IC50 [2] [µg/mL],IC50 [3] [µg/mL]
COc1cccc2c1C(=O)c1c(O)c3c(c(O)c1C2=O)C[C@@](O)(C(=O)CO)C[C@@H]3O[C@H]1C[C@H](N)[C@H](O)[C@H](C)O1 [Doxorubicin],0.02 ± 0.1,0.4 ± 0.1,0.5 ± 0.1,0.2 ± 0.1,–
O=C(O)c1cc(O)c(O)c(O)c1 [Gallic acid],–,–,96.2,18.2 ± 0.1,4.07 ± 0.04
